# Data as given in PubChem BioAssay AID2060618 (Molecular Pharmacology Branch, DTP, NCI, 2025).
# Test system: 454973-116-R2-J3-PDC spheroids, percent test/control viability
# Assay: Anticancer human tumor 454973-116-R2-J3-PDC patient-derived pancreatic carcinoma cell line growth inhibition [CLK]
# Settings: spheroids with HUVEC and MSC; for IC50: curve of first compound; for viability, T/C: stronger effect = lower value
# From the text: A high-throughput screen of multi-cell type tumor spheroids was designed to identify active combinations of […] and targeted small molecules. Complex spheroids include a stromal component modeled by human endothelial cells (HUVEC) and fibroblasts modeled by human mesenchymal stem cells (MSCs). The concentration ranges selected for each drug and investigational agent were based upon clinically achievable concentrations if the clinical Cmax of the agent was known.
# Compounds. The drugs and investigational agents: cirtuvivint (SM08502; NSC835563), CC-671 (NSC850746), vemurafenib (NSC761431), tapotoclax (NSC804041), sotorasib (NSC818433), adagrasib (NSC831453), MRTX-1133 (NSC836407), BAY2416964 (NSC825713), copanlisib (NSC816437), inavolisib (NSC800729), abemaciclib (NSC768073), osimertinib (NSC779217), entinostat (NSC756642), eltanexor (KPT-8602, NSC794443), venetoclax (NSC766270), ceralasertib (NSC777638), bortezomib (NSC756655), olaparib (NSC753686), talazoparib (NSC767125), alisertib (NSC759677), peposertib (NSC802822), gemcitabine (NSC613327), 5-fluorouracil (NSC19893), SN-38 (NSC673596), oxaliplatin (NSC266046), paclitaxel (NSC125973), and doxorubicin (NSC123127), were obtained from the National Cancer Institute (NCI) Developmental Therapeutics Program Chemical Repository. The FDA-approved anticancer drug set is available from the Developmental Therapeutics Program at https://dtp.cancer.gov/organization/dscb/obtaining/available plates.htm. […] The stock solutions were prepared in dimethyl sulfoxide (DMSO, Sigma-Aldrich, St. Louis, MO, cat. D2650), except for the platinum complexes which were prepared in saline (Quality Biological, Gaithersburg, MD, cat. 114-055-101), at 800-fold the tested concentration and stored at -70 degrees C prior to their use. All drugs and investigational agents were tested over a range starting from a high concentration at or near the clinical Cmax and decreasing in half-log increments. If the clinical Cmax for an agent had not been determined, the highest concentration tested was 10 microM.
# Cell Culture. All cells were maintained in an incubator at 37 degrees C and 5% CO2 with 95% humidity. The PDC lines were cultured according to standard operating procedures established by the NCI PDMR. Briefly, all PDCs were thawed and cultured in Matrigel-coated flasks prepared with a working solution of 1X Ham's F-12 nutrient mix, without supplementation (Invitrogen, Waltham, MA, cat. 11765054), 100 U/mL penicillin-streptomycin (Invitrogen, cat. 15140122), and 2.5% Matrigel (Corning Inc., Corning, NY, cat. 354248) for the first three passages. The 947758-054-R-J2-PDC line was cultured in 6B/Colon 1A media, which includes advanced DMEM/F-12 (Thermo Fisher Scientific, cat. 12634028), 10 mM HEPES (Thermo Fisher Scientific, cat. 15630080), 1X GlutaMAX supplement (Thermo Fisher Scientific, cat. 35050061), 0.1 mg/mL primocin (InvivoGen, cat. ant-pm-2), 10% defined fetal bovine serum, heat inactivated (HyClone Laboratories Inc., cat. SH30070.03HI), 1.25 mM N-Acetyl-L-cysteine (Sigma-Aldrich, cat. A9165), 10 mM nicotinamide (Sigma-Aldrich, cat. N0636), 1X B-27 supplement (Thermo Fisher Scientific, cat. 17504044), 1X N-2 supplement (Thermo Fisher Scientific, cat. 17502048), and 10 microM Y-27632 dihydrochloride (Tocris Bioscience, cat. 1254). The 876862-298-R-J1-PDC was cultured in 6E media, which includes all 6B/Colon 1A media components plus 50% L-WRN conditioned media (ATCC, cat. CRL-3276), 50 ng/mL recombinant human EGF recombinant protein (hEGF; Thermo Fisher Scientific, cat. PHG0311), 10 ng/mL recombinant human fibroblast growth factor 10 (hGFG-10; PeproTech, cat. 100-26), 1 ng/mL recombinant human fibroblast growth factor 2 (hFGF-2; PeproTech, cat. 100-18B), and 1 µM prostaglandin E2 (PGE2; Tocris, cat. 2296). The 227483-062-R1-J1-PDC line was cultured in Panc media, containing all 6E components except hFGF-2, with the addition of 500 nM SB-431542 (Selleckchem, cat. S1067) and 10 nM gastrin (Tocris, cat. 3006). […]
# 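Further: spheroids exposed to compounds for 7 days before readout.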
smiles,measurement,setting,value
CC(CO)NC(=O)c1cc(-c2ccc(Cl)cc2)nn(-c2cnn(C)c2)c1=O (configuration not stated) + CN1CCN(c2cc(C(=O)Nc3cc4cc(-c5cnn(C)c5)ccc4cn3)ccn2)CC1,IC50,second compound 0.0316 µM,> 10000 nM
same,IC50,second compound 0.1 µM,> 10000 nM
same,IC50,second compound 0.316 µM,< 31.6 nM
same,IC50,second compound 1 µM,< 31.6 nM
same,IC50,second compound 3.16 µM,< 31.6 nM
same,IC50,second compound 10 µM,< 31.6 nM
same,"viability, T/C","second compound 0.0316 µM, first compound 0.0316 µM",97.5%
same,"viability, T/C","second compound 0.0316 µM, first compound 0.1 µM",97.8%
same,"viability, T/C","second compound 0.0316 µM, first compound 0.316 µM",95.6%
same,"viability, T/C","second compound 0.0316 µM, first compound 1 µM",105%
same,"viability, T/C","second compound 0.0316 µM, first compound 3.16 µM",96.5%
same,"viability, T/C","second compound 0.0316 µM, first compound 10 µM",68.4%
same,"viability, T/C","second compound 0.1 µM, first compound 0.0316 µM",76.9%
same,"viability, T/C","second compound 0.1 µM, first compound 0.1 µM",88.5%
same,"viability, T/C","second compound 0.1 µM, first compound 0.316 µM",80.6%
same,"viability, T/C","second compound 0.1 µM, first compound 1 µM",86%
same,"viability, T/C","second compound 0.1 µM, first compound 3.16 µM",82%
same,"viability, T/C","second compound 0.1 µM, first compound 10 µM",54.2%
same,"viability, T/C","second compound 0.316 µM, first compound 0.0316 µM",1.94%
same,"viability, T/C","second compound 0.316 µM, first compound 0.1 µM",2.45%
same,"viability, T/C","second compound 0.316 µM, first compound 0.316 µM",2.27%
same,"viability, T/C","second compound 0.316 µM, first compound 1 µM",2.92%
same,"viability, T/C","second compound 0.316 µM, first compound 3.16 µM",2.59%
same,"viability, T/C","second compound 0.316 µM, first compound 10 µM",4.2%
same,"viability, T/C","second compound 1 µM, first compound 0.0316 µM",0.11%
same,"viability, T/C","second compound 1 µM, first compound 0.1 µM",0.93%
same,"viability, T/C","second compound 1 µM, first compound 0.316 µM",2.47%
same,"viability, T/C","second compound 1 µM, first compound 1 µM",0.11%
same,"viability, T/C","second compound 1 µM, first compound 3.16 µM",0.09%
same,"viability, T/C","second compound 1 µM, first compound 10 µM",0.42%
same,"viability, T/C","second compound 3.16 µM, first compound 0.0316 µM",0.17%
same,"viability, T/C","second compound 3.16 µM, first compound 0.1 µM",0.17%
same,"viability, T/C","second compound 3.16 µM, first compound 0.316 µM",0.24%
same,"viability, T/C","second compound 3.16 µM, first compound 1 µM",0.18%
same,"viability, T/C","second compound 3.16 µM, first compound 3.16 µM",0.16%
same,"viability, T/C","second compound 3.16 µM, first compound 10 µM",0.13%
same,"viability, T/C","second compound 10 µM, first compound 0.0316 µM",1.96%
same,"viability, T/C","second compound 10 µM, first compound 0.1 µM",0.22%
same,"viability, T/C","second compound 10 µM, first compound 0.316 µM",0.37%
same,"viability, T/C","second compound 10 µM, first compound 1 µM",2.01%
same,"viability, T/C","second compound 10 µM, first compound 3.16 µM",0.24%
same,"viability, T/C","second compound 10 µM, first compound 10 µM",0.36%
